From patent US20180071317A1, “USE OF AGENTS THAT ALTER THE PERITUMORAL ENVIRONMENT FOR THE TREATMENT OF CANCER” (SERVICIO ANDALUZ DE SALUD, priority 2011, published 2018)

Key:
[1] = system: fibroblasts (PHF) co-cultured with tumor cells of human cervix carcinoma (KB); test: Marker expression (IHC) in PHF co-cultured with KB tumor cells; type: cell-based; conditions: co-culture with KB; SP 1 μM + antagonist 1 μM; 48 h;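 note: percentage of PHF fibroblasts showing expression of each marker, cultured in fresh blood plasma from a healthy human donor, six replicates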
Protocol: (§1) All cultures were maintained 48 hours, following which the same cells were included in paraffin blocks for subsequent analysis of the expression of different markers by immunohistochemistry (see Example 1). […] All experiments were carried out sixfold. Analyzed markers in fibroblast cells (stromal cells) were: TGF-α, TGF-β1, TGF-β2, TGF-β3, SPARC, MMP-3, MMP-7, MMP-9, MMP-11, MMP-13 and MMP-14.

[2] = system: fibroblasts (PHF) co-cultured with tumor cells of human breast carcinoma (MCF-7); test: Marker expression (IHC) in PHF co-cultured with MCF-7 tumor cells; type: cell-based; conditions: co-culture with MCF-7; SP 1 μM + antagonist 1 μM; 48 h;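 note: value is the percentage of fibroblasts positive for each marker, with fibroblasts cultured alone as reference, grown in fresh plasma from a healthy donor, six replicates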
Protocol: as §1

[3] = system: tumors from the tumor cell lines of Table 9; test: Mean tumor volume in nude mice injected subcutaneously with human tumor cells; conditions: 30 mg/kg/day oral, 7 days
[4] = system: fibroblasts (PHF) co-cultured with tumor cells of human gastric adenocarcinoma (23132/87); test: Marker expression (IHC) in PHF co-cultured with 23132/87 tumor cells; type: cell-based; conditions: co-culture with 23132/87; SP 1 μM + antagonist 1 μM; 48 h;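 note: cultures grown in fresh plasma from a healthy human donor, values give the percentage of PHF fibroblasts positive for the marker, each experiment run in six replicates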
Protocol: (§2) All cultures were maintained 48 hours, following which the same cells were included in paraffin blocks for subsequent analysis of the expression of different markers by immunohistochemistry (see Example 1). The primary antibodies used to perform immunohistochemical assays and their concentration are detailed in Example 2. All experiments were carried out sixfold. Analyzed markers in fibroblast cells (stromal cells) were: TGF-α, TGF-β1, TGF-β2, TGF-β3, SPARC, MMP-3, MMP-7, MMP-9, MMP-11, MMP-13 and MMP-14.

[5] = system: fibroblasts of tumors produced by human rhabdomyosarcoma tumor line (A-204); test: Marker expression (IHC) in fibroblasts of tumor or peritumoral area, mouse model, A-204; type: in vivo; conditions: A-204 tumors in mice, 30 mg/kg/day oral, 7 days
Protocol: In vitro tests conducted in Example 5 are now carried out in an experimental model in mice in vivo. […] Subsequently, the expression in fibroblasts tumoral and peritumoral area of molecular markers associated with progression and maintenance of tumors: TGF-α, TGF-β1, TGF-β2, TGF-β3, MMP-7, MMP-11, MMP-14 were analyzed by immunohistochemistry.
Were injected with 2×10^7 cells tumors (corresponding, in each case to each of the tumor types as specified in Table 9) in 200 of PBS subcutaneously μl. […] Mice were randomized into two groups when the tumors reached a volume of 75 mm^3 One group was treated with non-peptide receptor antagonists NK1 and the other with placebo 200μ1. […] Tumors and samples of non-neoplastic stromal areas remote from the tumor were halved, formalin fixed (4%) and then were included in paraffin blocks for analysis by immunohistochemistry.
The expression on fibroblast cells obtained in the animal model was analyzed by immunohistochemistry, of the above markers: TGF-α, TGF-β1, TGF-β2, TGF-β3, MMP-7, MMP-1 1, MMP-14MP-14. Tables 32 to 35 depict the type of label used and the average percentage of fibroblasts present in non-tumor areas, tumor and peritumoral (±SD) which were expressing the marker shown in each of the tumor types developed from of the different cell lines used. This process was realized in mice treated with non-peptide antagonists of NK1 receptor and in untreated animals (control).

[6] = system: fibroblasts (PHF) co-cultured with tumor cells of human pancreatic adenocarcinoma (CAPAN-1); test: Marker expression (IHC) in PHF co-cultured with CAPAN-1 tumor cells; type: cell-based; conditions: co-culture with CAPAN-1; SP 1 μM + antagonist 1 μM; 48 h;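 note: cultures grown in fresh plasma from a healthy human donor, run in six replicates, value is percent of fibroblasts positive for each marker, compared with fibroblasts cultured alone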
Protocol: as §2

[7] = system: fibroblasts (PHF) co-cultivated with tumor cell carcinoma of urinary bladder (5637); test: Marker expression (IHC) in PHF co-cultured with 5637 tumor cells; type: cell-based, human; conditions: co-culture with 5637; SP 1 μM + antagonist 1 μM; 48 h
Protocol: as §1

**Q.** Which results are given for `CC(=O)N1CCN([C@H]2CCN(C(=O)N(C)[C@H](C)c3cc(C(F)(F)F)cc(C(F)(F)F)c3)[C@@H](c3ccc(F)cc3C)C2)CC1` [Casopitant]?
**A.** PHF cells expressing MMP-3 [1]: 0%; PHF cells expressing MMP-7 [1]: 0%; PHF cells expressing MMP-9 [1]: 0%; PHF cells expressing MMP-11 [1]: 0%; PHF cells expressing MMP-13 [1]: 0%; PHF cells expressing MMP-14 [1]: 0%; PHF cells expressing SPARC [1]: 0%; PHF cells expressing TGF-α [1]: 0%; PHF cells expressing TGF-β1 [1]: 0%; PHF cells expressing TGF-β2 [1]: 0%; PHF cells expressing TGF-β3 [1]: 0%; PHF cells expressing MMP-3 [2]: 0%; PHF cells expressing MMP-7 [2]: 0%; PHF cells expressing MMP-9 [2]: 0%; PHF cells expressing MMP-11 [2]: 0%; PHF cells expressing MMP-13 [2]: 0%; PHF cells expressing MMP-14 [2]: 0%; PHF cells expressing SPARC [2]: 0%; PHF cells expressing TGF-α [2]: 0%; PHF cells expressing TGF-β1 [2]: 0%; PHF cells expressing TGF-β2 [2]: 0%; PHF cells expressing TGF-β3 [2]: 0%; Mean tumor volume ([3]; B lymphoblastic leukemia (peripheral human B lymphoblastoid cells) SD1): 109 ± 8; Mean tumor volume ([3]; Carcinoma of human non-small cell lung COR-L23): 119 ± 5; Mean tumor volume ([3]; Carcinoma of human non-small cell lung H-1963): 97 ± 3; Mean tumor volume ([3]; Carcinoma of human non-small cell lung HCC-44): 101 ± 8; Mean tumor volume ([3]; Carcinoma of human small cell lung H-209): 114 ± 7; Mean tumor volume ([3]; Carcinoma of human urinary bladder 5637): 100 ± 2; Mean tumor volume ([3]; Human B lymphoma BC-1): 83 ± 11; Mean tumor volume ([3]; Human Burkitt lymphoma CA-46): 94 ± 9; Mean tumor volume ([3]; Human Fibrosarcoma HT-1080): 89 ± 4; Mean tumor volume ([3]; Human Hodgkin lymphoma KM-H2): 86 ± 7; Mean tumor volume ([3]; Human Rhabdomyosarcoma A-204): 98 ± 5; Mean tumor volume ([3]; Human T-cell leukemia/NK YT): 102 ± 7; Mean tumor volume ([3]; Human T-lymphoma DERL human Hodgkin 7Linfoma KM-H2): 97 ± 6; Mean tumor volume ([3]; Human breast adenocarcinoma humano MCF-7): 86 ± 8; Mean tumor volume ([3]; Human breast carcinoma MDA-MB-468): 77 ± 9; Mean tumor volume ([3]; Human breast carcinoma MT-3): 87 ± 12; Mean tumor volume ([3]; Human choriocarcinoma AC-1M32): 84 ± 1; Mean tumor volume ([3]; Human colon carcinoma SW-403): 78 ± 7; Mean tumor volume ([3]; Human endometrial carcinoma AN3-CA): 82 ± 3; Mean tumor volume ([3]; Human endometrial stromal sarcoma ESS-1): 101 ± 5; Mean tumor volume ([3]; Human folicular thyroid carcinoma TT2609-C02): 112 ± 5; Mean tumor volume ([3]; Human gastric adenocarcinoma 23132/87): 83 ± 4; Mean tumor volume ([3]; Human glioma GAMG): 102 ± 4; Mean tumor volume ([3]; Human lung carcinoma A-427): 102 ± 8; Mean tumor volume ([3]; Human lung carcinoma DV-90): 99 ± 5; Mean tumor volume ([3]; Human lymphoblastic leukemia T BE-13): 101 ± 4; Mean tumor volume ([3]; Human malignant fibrous histiocytoma U-2197): 107 ± 2; Mean tumor volume ([3]; Human melanoma MEL HO): 102 ± 9; Mean tumor volume ([3]; Human multiple myeloma COLO-677): 104 ± 6; Mean tumor volume ([3]; Human neuroblastoma KELLY): 112 ± 5; Mean tumor volume ([3]; Human neuroblastoma bone marrow SKN-BE 2): 103 ± 4; Mean tumor volume ([3]; Human osteosarcoma CAL-72): 106 ± 7; Mean tumor volume ([3]; Human ovarian adenocarcinoma EFO-27): 88 ± 6; Mean tumor volume ([3]; Human ovarian carcinoma COLO-704): 97 ± 6; Mean tumor volume ([3]; Human pancretic adenocarcinoma CAPAN-1): 73 ± 8; Mean tumor volume ([3]; Human pancretic adenocarcinoma PA-TU 8902): 75 ± 6; Mean tumor volume ([3]; Human papillary thyroid carcinoma metastasizing B-CPAP): 106 ± 4; Mean tumor volume ([3]; Human prostate carcinoma 22RV1): 98 ± 4; Mean tumor volume ([3]; Human retinoblastoma WERI-Rb-1): 101 ± 5; Mean tumor volume ([3]; Human thyroid carcinoma 8505C): 99 ± 9; Mean tumor volume ([3]; Human uterine cervix carcinoma KB): 112 ± 1; Mean tumor volume ([3]; Melanoma humano, metástasis en ganglio linfático COLO 858): 99 ± 5; Mean tumor volume ([3]; Sarcoma human Edwing MHH-ES-1): 97 ± 9; Mean tumor volume ([3]; Transitional Carcinoma of human urinary bladder RT-4): 101 ± 3; PHF cells expressing MMP-3 [4]: 0%; PHF cells expressing MMP-7 [4]: 0%; PHF cells expressing MMP-9 [4]: 0%; PHF cells expressing MMP-11 [4]: 0%; PHF cells expressing MMP-13 [4]: 0%; PHF cells expressing MMP-14 [4]: 0%; PHF cells expressing SPARC [4]: 0%; PHF cells expressing TGF-α [4]: 0%; PHF cells expressing TGF-β1 [4]: 0%; PHF cells expressing TGF-β2 [4]: 0%; PHF cells expressing TGF-β3 [4]: 0%; fibroblasts expressing MMP-7 [5]: 0%; fibroblasts expressing MMP-11 [5]: 0%; fibroblasts expressing MMP-14 [5]: 0%; fibroblasts expressing TGF-α [5]: 0%; fibroblasts expressing TGF-β 1 [5]: 0%; fibroblasts expressing TGF-β 2 [5]: 0%; fibroblasts expressing TGF-β 3 [5]: 0%; PHF cells expressing MMP-3 [6]: 0%; PHF cells expressing MMP-7 [6]: 0%; PHF cells expressing MMP-9 [6]: 0%; PHF cells expressing MMP-11 [6]: 0%; PHF cells expressing MMP-13 [6]: 0%; PHF cells expressing MMP-14 [6]: 0%; PHF cells expressing SPARC [6]: 0%; PHF cells expressing TGF-α [6]: 0%; PHF cells expressing TGF-β1 [6]: 0%; PHF cells expressing TGF-β2 [6]: 0%; PHF cells expressing TGF-β3 [6]: 0%; PHF cells expressing MMP-3 [7]: 0%; PHF cells expressing MMP-7 [7]: 0%; PHF cells expressing MMP-9 [7]: 0%; PHF cells expressing MMP-11 [7]: 0%; PHF cells expressing MMP-13 [7]: 0%; PHF cells expressing MMP-14 [7]: 0%; PHF cells expressing SPARC [7]: 0%; PHF cells expressing TGF-α [7]: 0%; PHF cells expressing TGF-β1 [7]: 0%; PHF cells expressing TGF-β2 [7]: 0%; PHF cells expressing TGF-β3 [7]: 0%
